Entries after “also recorded” stand apart in the source; their conditions may differ. Where a SMILES comes first, the peptide text is derived from it.
Tests used:
Schgr-sNPFR [1] = test: Calcium assay, aequorin bioluminescence in CHO-WTA11-Schgr-sNPFR cells (promiscuous Gα16); assay type: cell-based, Schistocerca gregaria; conditions: for EC50: CHO-WTA11 cells with Gα16, aequorin/coelenterazine h luminescence, 30 s read, ± (95% confidence interval), three independent measurements in duplicate
Experimental: (§1) Three cell lines were used in this study. General receptor studies were performed in Chinese Hamster Ovary (CHO)-WTA11 cells, a clone of CHO cells stably coexpressing the promiscuous Gα16 and apoaequorin. To determine the mode of downstream signalling, we used either CHO-PAM28 cells, a clone of CHO cells expressing apoaequorin but not the promiscuous Gα16, or Human Embryonic Kidney (HEK) 293T cells, expressing neither Gα16 nor apoaequorin. All cell lines used in this study were provided by Prof. Dr. M. Parmentier and Dr. M. Dethreux (Université Libre de Bruxelles) and Euroscreen S.A., Belgium.
(§2) The cells were cultured in monolayer, in Dulbecco’s Modified Eagle Medium Nutrient Mixture F12-Ham (DMEM/F12, Invitrogen) containing 10% fetal calf serum (Invitrogen), 100 IU/ml penicillin/streptomycin (Invitrogen). For the CHO-WTA11 cells, 250 µg/ml Zeocin™ (Invitrogen) was added to the medium, while to the medium of CHO-PAM28 cells, 5 µg/ml Puromycin (Invitrogen) was added. The cells were grown at 37°C, with a constant supply of 5% CO2 and split every 3 days.
Transfections with either Schgr-sNPFR/pcDNA3.1D or empty pcDNA3.1D vector were performed in T75 flasks at ca. 60% confluency. […]
In the calcium-assays, CHO-WTA11 or CHO-PAM28 cells expressing the Schgr-sNPFR were detached two days after transfection, counted using the NucleoCounter® NC-100™ (Chemometec), and resuspended in DMEM/BSA (DMEM/F12, 10 mM HEPES, 0.1% bovine serum albumin) at a concentration of 5×10^5 cells/ml. […]
After incubation, the cell suspension was injected in wells containing a peptide solution, dissolved in 50 µl BSA medium. […] Light emission was monitored using a Mithras LB 940 Microplate Reader (Berthold technologies).
(§3) Data generated in these experiments were analysed using GraphPad Prism 5 (GraphPad Software).
As putative ligands for the cloned Schistocerca gregaria sNPF receptor, Schgr-sNPF (SNRSPSLRLRFa), Schgr-sNPF^4−11 (SPSLRLRFa) and Schgr-trNPF (YSQVARPRFa) were tested. […] For each of these peptides, the dose-dependent activation of the Schgr-sNPFR was studied in CHO-WTA11 cells and EC50 values were calculated.

Schgr-sNPFR [2] = test: Calcium assay, aequorin bioluminescence in CHO-PAM28-Schgr-sNPFR cells (no Gα16); assay type: cell-based, Schistocerca gregaria; conditions: for EC50: CHO-PAM28 cells without Gα16, aequorin bioluminescence, three independent measurements in duplicate; for maximum response (aequorin bioluminescence): Schgr-sNPF and Schgr-sNPF^4−11 compared with each other
Experimental: as §1, §2
(§4) Transfections with either Schgr-sNPFR/pcDNA3.1D or empty pcDNA3.1D vector were performed in T75 flasks at ca. 60% confluency. Transfection reagent was prepared by combining 2,5 ml of DMEM/F12, 5 µg of the plasmid DNA and 12.5 µl of PLUS™ Reagent (Invitrogen). After storing the medium at room temperature for 5 minutes, 30 µl Lipofectamine™ LTX (Invitrogen) was added and the transfection medium was added dropwise into 3 ml of culture medium after 30 minutes incubation at room temperature. HEK 293T cells were cotransfected with a reporter construct, consisting of a luciferase gene situated downstream of a cyclic AMP (cAMP) response element (CRE) and promoter.
In the calcium-assays, CHO-WTA11 or CHO-PAM28 cells expressing the Schgr-sNPFR were detached two days after transfection, counted using the NucleoCounter® NC-100™ (Chemometec), and resuspended in DMEM/BSA (DMEM/F12, 10 mM HEPES, 0.1% bovine serum albumin) at a concentration of 5×10^5 cells/ml. Cells where then shielded from light and incubated for 4 h with 5 µM coelenterazine h (Invitrogen), allowing the aequorin holoenzyme to be reconstituted.
After incubation, the cell suspension was injected in wells containing a peptide solution, dissolved in 50 µl BSA medium. After 30 s, 50 µl of 0.1% Triton X-100 was injected, lysing the cells and thus serving as an internal reference. Wells containing no peptide but DMEM/BSA were used as a negative control while wells containing 1 µM ATP were used as a positive control. Light emission was monitored using a Mithras LB 940 Microplate Reader (Berthold technologies).
as §3
These two peptides were then further studied with respect to their mode of intracellular signalling. Cell based assays were performed using a CHO-PAM28 cell line, expressing apoaequorin, allowing the detection of increases in the intracellular concentration of calcium ions. […] The calculated EC50 values were both in the nanomolar range.

Schgr-sNPFR [3] = test: cAMP assay, CRE-luciferase bioluminescence in HEK-293T-Schgr-sNPFR cells; assay type: cell-based, Schistocerca gregaria; conditions: HEK 293T cells; for IC50: 200 µM IBMX + NKH 477, 3 h at 37°C, three independent measurements in duplicate, read-out: IC50 (inhibition of CRE-luciferase reporter expression); for inhibition of the reporter expression (result in words): CRE-luciferase, 200 µM IBMX + NKH 477
Experimental: as §1, §2, §4
HEK 293T cells, cotransfected with the Schgr-sNPFR/pcDNA3.1 vector and the CRE-luciferase construct, were detached two days after transfection, centrifuged and resuspended to a concentration of 10^6 cells/ml in DMEM/F12 containing 200 µM 3-isobutyl-1-methylxanthine (IBMX; Sigma-Aldrich). Fifty µl of this suspension was introduced into in each well of a 96-well-plate. When studying stimulatory effects, peptides were dissolved in DMEM/F12 containing 200 µM IBMX. When studying inhibitory effects, these peptides were dissoved in DMEM/F12 supplemented with 200 µM IBMX and 20 µM NKH 477 (a water-soluble analogue of forskolin; Sigma-Aldrich). […] Light emission, resulting from the luciferase activity, was measured for 5 s/well using the Mithras LB 940 Microplate Reader.
as §3
The possible effect of receptor activation on intracellular cyclic AMP (cAMP) production was analysed in HEK 293T cells that were cotransfected with a CRE-luciferase reporter construct.

adult locusts = test: Peptide injection feeding assay (food uptake); assay type: in vivo, Schistocerca gregaria; conditions: for reduction of food uptake: 2 µl of 100 µg/ml injected dorsally, cabbage for one hour, vs saline, n = 20; for effect on food uptake (result in words): normalized to body mass, mean, n = 20, ANOVA with Tukey
Experimental: The desert locusts used in this study were all gregarious adult animals. They were reared under crowded conditions at a constant temperature (32±1°C) and photoperiod (14 h). The locusts were kept at high density (>200 locusts per cage) and fed daily with cabbage and dry oat flakes. In an effort to normalize feeding responses, locusts used in feeding experiments were placed in separate cages and placed on a controlled dietary regimen one week prior to the assay. Locusts were fed for two hours each day (9 h–10 h, 16 h–17 h).
At 9 AM, 2 µl of a 100 µg/ml peptide solution (experimental condition) or saline solution (negative control) was injected dorsally between the first and second abdominal segments using a 710 RN injector (Hamilton). Pieces of cabbage were weighed in advance and presented to the locusts for one hour, after which all animals had stopped feeding. In parallel, similar pieces of cabbage were put in empty cages during the period of the experiment. The relative weight loss of these pieces was used to estimate the effect of evaporation All cabbage leafs were weighed after the feeding assay, total food uptake was calculated and corrected for the weight that was lost by evaporation. The results were analysed using GraphPad Prism 5 (GraphPad Software).

Row | Compound | EC50 (Schgr-sNPFR [1]) [nM] | increase of aequorin bioluminescence (Schgr-sNPFR [2]; CHO-PAM28 cells) | EC50 (Schgr-sNPFR [2]) [nM] | maximum response (aequorin bioluminescence) (Schgr-sNPFR [2]; CHO-PAM28 cells) | IC50 (Schgr-sNPFR [3]) [nM] | inhibition of the reporter expression (result in words) (Schgr-sNPFR [3]) | reduction of food uptake (adult locusts) [%] | effect on food uptake (result in words) (adult locusts; ** p<0.01, *** p<0.001) | effect on food uptake (result in words) (adult locusts; ** p<0.01, *** p<0.001, listed as sNPF^4−11) | agonist character with respect to calcium response (Schgr-sNPFR [2]; CHO-PAM28 cells, maximum response lower than that of Schgr-sNPF^4−11) | effect on food uptake (result in words) (adult locusts; ** p<0.01, *** p<0.001, listed as sNPF) | activation of the receptor (result in words) (Schgr-sNPFR [1]; CHO-WTA11 cells, aequorin bioluminescence)
1 | CC(C)C[C@H](NC(=O)[C@H](CCCNC(=N)N)NC(=O)[C@H](CC(C)C)NC(=O)[C@H](CO)NC(=O)[C@@H]1CCCN1C(=O)[C@@H](N)CO)C(=O)N[C@@H](CCCNC(=N)N)C(=O)N[C@@H](Cc1ccccc1)C(N)=O [Schgr-sNPF^4−11] (H-SPSLRLRF-NH2) | 5.56 ± 1.8 | dose-dependent increase of aequorin bioluminescence | 32.2 ± 18.2 | markedly higher than those obtained with Schgr-sNPF | 0.0955 ± 0.0323 | highly effective | 37 | significant decrease of food uptake | significant decrease in food uptake |  |  | 
2 | SNRSPSLRLRFa [Schgr-sNPF, Schistocerca gregaria short neuropeptide F, […]a] | 2.05 ± 0.63 | dose-dependent increase of aequorin bioluminescence | 3.28 ± 2.2 | markedly lower than that of Schgr-sNPF^4−11 | 0.0763 ± 0.0261 | highly effective | 30 | significant decrease of food uptake |  | partial agonist | significant decrease in food uptake | 
3 | YSQVARPRFa [Schgr-trNPF, truncated form of Schgr-neuropeptide F, …a] |  |  |  |  |  |  |  |  |  |  |  | No dose-dependent response was observed; also recorded: not responsive
